According to ChEMBL document CHEMBL4152334, “Synthesis, molecular docking and biological evaluation of novel phthaloyl derivatives of 3-amino-3-aryl propionic acids as inhibitors of Trypanosoma cruzi trans-sialidase” (2018):

Each compound was assayed on Trypanosoma cruzi (assay: Trypanocidal activity against trypomastigote stage of Trypanosoma cruzi NINOA infected in NIH mouse blood assessed as parasite lysis at 10 ug/ml after 24 hrs by optical microscopic method relative to control). Settings: not given.
Assay type: functional

Point of comparison: `O=C(O)CC(c1cccs1)N1C(=O)c2ccc(C(=O)O)cc2C1=O` (centres undefined), Activity 67%. Against it:
- NC(CC(=O)O)c1ccco1 (centres undefined) — lower, 53%
- COc1ccc(C(CC(=O)O)N2C(=O)c3ccc(C(=O)O)cc3C2=O)cc1 (centres undefined) — higher, 72%
- NC(CC(=O)O)c1cc2c(cc1[N+](=O)[O-])OCCO2 (centres undefined) — lower, 7%
- Cc1ccc(C(CC(=O)O)N2C(=O)c3ccc(C(=O)O)cc3C2=O)cc1 (centres undefined) — higher, 85%
- O=C(O)CC(c1ccc(Cl)cc1)N1C(=O)c2ccccc2C1=O (centres undefined) — lower, 36%
- COc1ccc(C(N)CC(=O)O)cc1 (centres undefined) — higher, 83%
- O=C(O)CC(c1ccc(-c2ccccc2)cc1)N1C(=O)c2ccc(C(=O)O)cc2C1=O (centres undefined) — lower, 17%
- O=C(O)CC(c1ccc(F)cc1)N1C(=O)c2ccccc2C1=O (centres undefined) — lower, 63%
- Cc1ccc2c(c1)C(=O)N(C(CC(=O)O)c1ccc3c(c1)OCCO3)C2=O (centres undefined) — lower, 47%
- Cc1ccc2c(c1)C(=O)N(C(CC(=O)O)c1ccccc1[N+](=O)[O-])C2=O (centres undefined) — lower, 22%
- Cc1ccc2c(c1)C(=O)N(C(CC(=O)O)c1ccco1)C2=O (centres undefined) — lower, 27%
- Cc1ccc2c(c1)C(=O)N(C(CC(=O)O)c1cccs1)C2=O (centres undefined) — lower, 47%
- O=C(O)CC(c1ccc(Br)cc1)N1C(=O)c2ccccc2C1=O (centres undefined) — lower, 8%
- O=C(O)CC(c1cc2c(cc1[N+](=O)[O-])OCCO2)N1C(=O)c2ccc(C(=O)O)cc2C1=O (centres undefined) — lower, 40%
- COc1ccc(C(CC(=O)O)N2C(=O)c3ccccc3C2=O)cc1 (centres undefined) — lower, 24%
- O=C(O)CC(c1ccco1)N1C(=O)c2ccccc2C1=O (centres undefined) — lower, 16%
- Cc1ccc(C(N)CC(=O)O)cc1 (centres undefined) — higher, 78%
- Cc1ccc2c(c1)C(=O)N(C(CC(=O)O)c1ccc(F)cc1)C2=O (centres undefined) — lower, 63%
- Cc1ccc(C(CC(=O)O)N2C(=O)c3ccc(C)cc3C2=O)cc1 (centres undefined) — higher, 73%
- NC(CC(=O)O)c1ccc(F)cc1 (centres undefined) — lower, 35%
- NC(CC(=O)O)c1ccc([N+](=O)[O-])cc1 (centres undefined) — lower, 50%
- NC(CC(=O)O)c1ccc(-c2ccccc2)cc1 (centres undefined) — lower, 32%
- O=C(O)CC(c1ccc2ccccc2c1)N1C(=O)c2ccc(C(=O)O)cc2C1=O (centres undefined) — lower, 42%
- Cc1ccc2c(c1)C(=O)N(C(CC(=O)O)c1ccc(Cl)cc1)C2=O (centres undefined) — lower, 52%
- O=C(O)CC(c1ccc(Cl)cc1)N1C(=O)c2ccc(C(=O)O)cc2C1=O (centres undefined) — lower, 3%
- O=C(Cn1ccnc1[N+](=O)[O-])NCc1ccccc1 [BENZNIDAZOLE] — lower, 46.3%
- NC(CC(=O)O)c1ccc(Br)cc1 (centres undefined) — lower, 20%
- Cc1ccc2c(c1)C(=O)N(C(CC(=O)O)c1ccc(Br)cc1)C2=O (centres undefined) — lower, 65%

What follows are compounds tested on Trypanosoma cruzi (assay: Trypanocidal activity against trypomastigote stage of Trypanosoma cruzi NINOA infected in NIH mouse blood assessed as […] parasite lysis after 24 hrs by optical microscopic method). Settings: not given.
Assay type: functional

Point of comparison: `Cc1ccc2c(c1)C(=O)N(C(CC(=O)O)c1ccc(Br)cc1)C2=O` (centres undefined), LC50 24.6 µM. Against it:
- NC(CC(=O)O)c1ccco1 (centres undefined) — 4-fold higher, 99.1 µM
- Cc1ccc(C(CC(=O)O)N2C(=O)c3ccc(C(=O)O)cc3C2=O)cc1 (centres undefined) — 4.5-fold higher, 110 µM
- COc1ccc(C(N)CC(=O)O)cc1 (centres undefined) — 4.1-fold higher, 102 µM
- O=C(O)CC(c1ccc(F)cc1)N1C(=O)c2ccccc2C1=O (centres undefined) — 3.7-fold higher, 90.8 µM
- Cc1ccc(C(N)CC(=O)O)cc1 (centres undefined) — 7.5-fold higher, 184 µM
- Cc1ccc2c(c1)C(=O)N(C(CC(=O)O)c1ccc(F)cc1)C2=O (centres undefined) — 1.8-fold higher, 45.2 µM
- Cc1ccc(C(CC(=O)O)N2C(=O)c3ccc(C)cc3C2=O)cc1 (centres undefined) — 3.5-fold higher, 85.6 µM
- NC(CC(=O)O)c1ccc([N+](=O)[O-])cc1 (centres undefined) — 5.1-fold higher, 125 µM
- Cc1ccc2c(c1)C(=O)N(C(CC(=O)O)c1ccc(Cl)cc1)C2=O (centres undefined) — 1.5-fold higher, 37.7 µM
- O=C(Cn1ccnc1[N+](=O)[O-])NCc1ccccc1 [BENZNIDAZOLE] — 5.3-fold higher, 130 µM

These compounds were tested against T1, Trans-sialidase (Trypanosoma cruzi) (UniProt Q26964) (assay: Inhibition of Trypanosoma cruzi trans-sialidase at 1 mM assessed as reduction of 3'-sialyl-N-acetyllactosamine formation at 1 mM using N-acetyllactosamine as substrate and 3-sialyl-lactose as donor incubated for 15 mins by HPAEC-PAD relative to control). Settings: not given.
T1 sequence (whole entry): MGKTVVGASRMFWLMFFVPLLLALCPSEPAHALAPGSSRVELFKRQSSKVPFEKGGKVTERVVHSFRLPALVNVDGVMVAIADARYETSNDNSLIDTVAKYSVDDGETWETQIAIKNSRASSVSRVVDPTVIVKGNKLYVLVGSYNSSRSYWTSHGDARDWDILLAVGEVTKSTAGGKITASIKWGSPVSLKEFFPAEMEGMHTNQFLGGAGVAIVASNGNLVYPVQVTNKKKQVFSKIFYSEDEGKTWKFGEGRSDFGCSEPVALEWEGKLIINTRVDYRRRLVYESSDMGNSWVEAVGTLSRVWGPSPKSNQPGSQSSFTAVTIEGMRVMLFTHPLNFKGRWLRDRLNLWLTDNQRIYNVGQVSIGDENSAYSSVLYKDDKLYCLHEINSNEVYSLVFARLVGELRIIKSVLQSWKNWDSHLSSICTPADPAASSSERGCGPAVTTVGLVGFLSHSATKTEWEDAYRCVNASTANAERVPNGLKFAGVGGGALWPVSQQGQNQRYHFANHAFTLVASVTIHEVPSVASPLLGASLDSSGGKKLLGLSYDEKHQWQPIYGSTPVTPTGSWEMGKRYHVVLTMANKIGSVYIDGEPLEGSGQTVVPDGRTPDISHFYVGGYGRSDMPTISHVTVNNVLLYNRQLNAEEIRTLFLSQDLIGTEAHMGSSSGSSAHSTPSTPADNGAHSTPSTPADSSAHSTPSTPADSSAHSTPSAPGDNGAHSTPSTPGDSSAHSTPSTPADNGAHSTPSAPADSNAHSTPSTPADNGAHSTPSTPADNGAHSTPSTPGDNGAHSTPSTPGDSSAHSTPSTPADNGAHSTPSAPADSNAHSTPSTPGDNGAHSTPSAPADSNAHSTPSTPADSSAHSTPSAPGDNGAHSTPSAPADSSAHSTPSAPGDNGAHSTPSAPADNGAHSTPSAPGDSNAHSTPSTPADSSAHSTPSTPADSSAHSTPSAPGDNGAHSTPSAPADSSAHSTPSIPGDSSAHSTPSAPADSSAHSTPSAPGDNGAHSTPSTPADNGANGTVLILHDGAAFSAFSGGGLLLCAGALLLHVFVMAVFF

Point of comparison: `Cc1ccc2c(c1)C(=O)N(C(CC(=O)O)c1ccco1)C2=O` (centres undefined), inhibition 40%. Against it:
- NC(CC(=O)O)c1ccco1 (centres undefined) — lower, 11.9%
- O=C(O)CC(c1ccco1)N1C(=O)c2ccccc2C1=O (centres undefined) — higher, 76.5%
- O=C(O)CC(c1ccc2ccccc2c1)N1C(=O)c2ccc(C(=O)O)cc2C1=O (centres undefined) — higher, 66.9%

These compounds were tested on Trypanosoma cruzi (assay: Trypanocidal activity against trypomastigote stage of Trypanosoma cruzi INC-5 infected in NIH mouse blood assessed as parasite lysis after 24 hrs by optical microscopic method). Settings: INC-5, Blood.
Assay type: functional

Point of comparison: `Cc1ccc(C(CC(=O)O)N2C(=O)c3ccc(C(=O)O)cc3C2=O)cc1` (centres undefined), LC50 39.9 µM. Against it:
- NC(CC(=O)O)c1ccco1 (centres undefined) — 5.7-fold higher, 229 µM
- COc1ccc(C(N)CC(=O)O)cc1 (centres undefined) — 6.4-fold higher, 256 µM
- O=C(O)CC(c1ccc(F)cc1)N1C(=O)c2ccccc2C1=O (centres undefined) — 2-fold higher, 81.4 µM
- Cc1ccc(C(N)CC(=O)O)cc1 (centres undefined) — 7.3-fold higher, 290 µM
- Cc1ccc2c(c1)C(=O)N(C(CC(=O)O)c1ccc(F)cc1)C2=O (centres undefined) — 1.9-fold higher, 74.6 µM
- Cc1ccc(C(CC(=O)O)N2C(=O)c3ccc(C)cc3C2=O)cc1 (centres undefined) — within 1.5-fold, 43.6 µM
- NC(CC(=O)O)c1ccc([N+](=O)[O-])cc1 (centres undefined) — 6.2-fold higher, 249 µM
- Cc1ccc2c(c1)C(=O)N(C(CC(=O)O)c1ccc(Cl)cc1)C2=O (centres undefined) — within 1.5-fold, 52 µM
- O=C(Cn1ccnc1[N+](=O)[O-])NCc1ccccc1 [BENZNIDAZOLE] — 3.1-fold higher, 124 µM
- Cc1ccc2c(c1)C(=O)N(C(CC(=O)O)c1ccc(Br)cc1)C2=O (centres undefined) — 1.7-fold lower, 23 µM

Each compound was assayed on Trypanosoma cruzi (assay: Trypanocidal activity against trypomastigote stage of Trypanosoma cruzi INC-5 infected in NIH mouse blood assessed as parasite lysis at 10 ug/ml after 24 hrs by optical microscopic method relative to control). Settings: not given.
Assay type: functional

Point of comparison: `O=C(O)CC(c1ccc(Cl)cc1)N1C(=O)c2ccccc2C1=O` (centres undefined), Activity 70%. Against it:
- NC(CC(=O)O)c1ccco1 (centres undefined) — lower, 50%
- COc1ccc(C(CC(=O)O)N2C(=O)c3ccc(C(=O)O)cc3C2=O)cc1 (centres undefined) — lower, 32%
- NC(CC(=O)O)c1cc2c(cc1[N+](=O)[O-])OCCO2 (centres undefined) — lower, 15%
- O=C(O)CC(c1cccs1)N1C(=O)c2ccc(C(=O)O)cc2C1=O (centres undefined) — lower, 19%
- Cc1ccc(C(CC(=O)O)N2C(=O)c3ccc(C(=O)O)cc3C2=O)cc1 (centres undefined) — lower, 55%
- COc1ccc(C(N)CC(=O)O)cc1 (centres undefined) — lower, 54%
- O=C(O)CC(c1ccc(-c2ccccc2)cc1)N1C(=O)c2ccc(C(=O)O)cc2C1=O (centres undefined) — lower, 57%
- O=C(O)CC(c1ccc(F)cc1)N1C(=O)c2ccccc2C1=O (centres undefined) — lower, 52%
- Cc1ccc2c(c1)C(=O)N(C(CC(=O)O)c1ccc3c(c1)OCCO3)C2=O (centres undefined) — lower, 40%
- Cc1ccc2c(c1)C(=O)N(C(CC(=O)O)c1ccccc1[N+](=O)[O-])C2=O (centres undefined) — lower, 65%
- Cc1ccc2c(c1)C(=O)N(C(CC(=O)O)c1ccco1)C2=O (centres undefined) — lower, 40%
- Cc1ccc2c(c1)C(=O)N(C(CC(=O)O)c1cccs1)C2=O (centres undefined) — lower, 48%
- O=C(O)CC(c1ccc(Br)cc1)N1C(=O)c2ccccc2C1=O (centres undefined) — lower, 15%
- O=C(O)CC(c1cc2c(cc1[N+](=O)[O-])OCCO2)N1C(=O)c2ccc(C(=O)O)cc2C1=O (centres undefined) — lower, 59%
- COc1ccc(C(CC(=O)O)N2C(=O)c3ccccc3C2=O)cc1 (centres undefined) — lower, 9%
- O=C(O)CC(c1ccco1)N1C(=O)c2ccccc2C1=O (centres undefined) — lower, 21%
- Cc1ccc(C(N)CC(=O)O)cc1 (centres undefined) — lower, 59%
- Cc1ccc2c(c1)C(=O)N(C(CC(=O)O)c1ccc(F)cc1)C2=O (centres undefined) — lower, 56%
- Cc1ccc(C(CC(=O)O)N2C(=O)c3ccc(C)cc3C2=O)cc1 (centres undefined) — lower, 67%
- NC(CC(=O)O)c1ccc(F)cc1 (centres undefined) — lower, 62%
- NC(CC(=O)O)c1ccc([N+](=O)[O-])cc1 (centres undefined) — lower, 68%
- NC(CC(=O)O)c1ccc(-c2ccccc2)cc1 (centres undefined) — lower, 37%
- O=C(O)CC(c1ccc2ccccc2c1)N1C(=O)c2ccc(C(=O)O)cc2C1=O (centres undefined) — lower, 24%
- Cc1ccc2c(c1)C(=O)N(C(CC(=O)O)c1ccc(Cl)cc1)C2=O (centres undefined) — lower, 51%
- O=C(O)CC(c1ccc(Cl)cc1)N1C(=O)c2ccc(C(=O)O)cc2C1=O (centres undefined) — lower, 69%
- O=C(Cn1ccnc1[N+](=O)[O-])NCc1ccccc1 [BENZNIDAZOLE] — lower, 56%
- NC(CC(=O)O)c1ccc(Br)cc1 (centres undefined) — lower, 18%
- Cc1ccc2c(c1)C(=O)N(C(CC(=O)O)c1ccc(Br)cc1)C2=O (centres undefined) — lower, 50%
